Test [1] deals with VC reductive dehalogenase of Dehalococcoides sp. strain VS. The test is described as follows: VC-reduction enzyme assay with Ti(III)-reduced methyl viologen as electron donor, gas chromatography. In kind it is biochemical. Here is the method:
Enzyme assays. Cells were harvested by centrifugation (20,000 g, 20 min, 4° C.) under strictly anoxic conditions using the anoxic chamber, washed and resuspended in degassed MOPS buffer (20 mM, pH 7.2) supplemented with 2 mM DTE and 0.2 mM titanium(III)NTA (buffer A). The buffer was incubated overnight in the anoxic chamber before addition of reducing agents. Cell-free extracts were obtained by anoxic disruption of cells by French Press treatment (138 MPa; two passages), followed by two centrifugation steps (30,000×g, 15 min, 4° C.).
Assays of VC-reduction were conducted as described previously in 2-ml glass vials under an N2/H2 atmosphere with Ti(III)-reduced methyl viologen as artificial electron donor (Rosner et al.) The protein concentration in the assay varied between 10 and 100 μg/ml. The test was started by addition of gaseous VC to the assay mix (total aqueous volume 0.3 ml), and change in VC and ethene concentrations were followed with time by gas chromatography. Experiments testing for reduction of liquid chlorinated ethenes (PCE, TCE, DCE-isomers) were carried out essentially as described above with the appropriate substitution of the chlorinated ethene. The chlorinated compounds were added from aqueous stock solutions.
Oxygen sensitivity of VC-reducing activity in cell-free extract was investigated in buffer amended with resazurin as redox indicator. Prior to addition of VC, the assay was exposed to air until the resazurin underwent a color-change from colorless to pink. Subsequently, the assay was rendered anoxic again by exchanging the gas phase inside the anoxic chamber followed by addition of Ti(III)NTA (5 mM final concentration). All enzyme assays were carried out at ambient temperature, and given activities are means of at least three independent measurements.
Partial purification of VC reductase. Protein purification was performed at 4° C. in the anoxic chamber. The membrane fraction was obtained by centrifugation of cell-free extract at 100,000×g for 90 min at 4° C. The pellet was resuspended in 1 ml buffer A supplemented with 2 mM 3-[(3-cholamidopropyl)dimethylammonio]-1-propanesulfonic acid (CHAPS), and incubated for 1 h on ice. After subsequent centrifugation (100,000×g, 90 min, 4° C.) the solubilized membrane fraction was diluted with an equal volume of buffer B (50 mM 1,3-Bis[tris(hydroxymethyl)methylamino]propane (Bis-Tris Propane), pH 9.6, 2 mM dithiothreitol, 0.2 mM titanium(III)NTA, 20 mM CHAPS), and loaded on a 1-ml HighTrap Q column (Amersham Pharmacia) equilibrated with buffer C (same as buffer B but with 2 mM CHAPS). VC reductive dehalogenase activity was eluted as a single peak (at 550 to 580 mM NaCl) with 10 ml buffer C followed by a 40-ml linear gradient from 0-700 mM NaCl in buffer C at a flow of 1 ml/min. Fractions containing the highest activity were pooled and mixed with an equal volume of buffer A containing 20 mM CHAPS, and applied to a Superose-6 column equilibrated with the same buffer. Enzyme activity was eluted with buffer A at a flow rate of 0.2 ml/min. The protein concentration of the samples was determined according to Bradford with bovine serum albumin as a standard.

The subject of test [2] is Victoria mixed culture, containing strain VS. Particulars: traditional method of cell counting; cited from earlier work.
Test [3] deals with Dehalococcoides ethenogenes strain 195. The test is described as follows: Batch dechlorination, D. ethenogenes strain 195 culture. In kind it is cell-based. The settings on record: cultures supplied with VC or DCE. The text has this: Stock cultures. The Victoria mixed culture, containing strain VS, was maintained in a closed continuously stirred tank reactor (CSTR) as previously described. A VC enrichment of this culture, maintained over 5 years, was also used in these investigations. Liquid cultures of the three other cultures evaluated (Pinellas, KB-1/VC, and Dehalococcoides ethenogenes strain 195) were kept in anaerobic bottles, stored in an anaerobic chamber (10% H2, 10% CO2, 80% N2). The bottles were amended with TCE (1-3 μL neat liquid), VC (250 μL gas), and PCE (1-3 μL neat liquid) being added to each, respectively, approximately every two weeks.
Batch studies. For the experimental portion of this research, two studies were undertaken, one a comparative VC growth study, and the other a comparative growth and substrate utilization study with different chlorinated ethenes. These studies compared the dechlorination abilities of Dehalococcoides ethenogenes strain 195 and the Dehalococcoides-like microorganisms in the three mixed cultures (Victoria, KB-1/VC, and Pinellas).
For the first study, a VC enriched inoculum was first developed for each of the three mixed cultures. Here, bottles (120 mL) were filled with 60 mL of anaerobic media in an anaerobic chamber as previously described, and inoculated with 200 μL of each stock culture. Gaseous VC (99.5%) was added with a gas tight syringe (200 μL). […]

Test [4] concerns highly enriched culture of strain VS. The settings on record: previously determined; cited from earlier work.
Test [5] addresses T1, TCE-reductive dehalogenase (TceA) (Dehalococcoides mccartyi, UniProt Q3ZAB8).
T1 sequence (Q3ZAB8 43-554): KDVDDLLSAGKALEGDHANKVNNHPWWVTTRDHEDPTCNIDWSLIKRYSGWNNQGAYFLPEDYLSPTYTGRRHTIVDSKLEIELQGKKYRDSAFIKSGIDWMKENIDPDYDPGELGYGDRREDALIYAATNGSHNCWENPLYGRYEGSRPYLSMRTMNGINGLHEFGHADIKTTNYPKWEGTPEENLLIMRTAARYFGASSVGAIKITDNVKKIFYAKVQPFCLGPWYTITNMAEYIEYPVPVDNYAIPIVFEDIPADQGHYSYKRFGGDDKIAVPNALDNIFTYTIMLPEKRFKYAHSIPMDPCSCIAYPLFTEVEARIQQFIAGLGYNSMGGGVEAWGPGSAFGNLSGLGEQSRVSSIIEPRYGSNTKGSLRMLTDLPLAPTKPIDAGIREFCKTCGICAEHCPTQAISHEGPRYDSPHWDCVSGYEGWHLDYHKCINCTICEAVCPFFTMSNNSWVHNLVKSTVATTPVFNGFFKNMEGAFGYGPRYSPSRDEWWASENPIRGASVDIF
The settings on record: TceA of D. ethenogenes 195; cited from earlier work.

Turning to `ClC=C(Cl)Cl` [TCE, trichloroethene], the “reduction rate relative to reduction rate for cDCE to VC” value in test [1] (reduction of TCE to cDCE) worked out at 5%. The “effect on the reduction rate of VC” value in test [1] (saturating concentrations of PCE or TCE present) is on record as “not affected”.

As to `C=CCl` [VC, vinyl chloride], the “growth rate determined previously by cell counting” value in test [2] is 0.4 day⁻¹. Moreover, in test [3], the “dechlorination by D. ethenogenes strain 195” value is recorded as “did not dechlorinate”. Further, the “strain VS maximum VC utilization rate” value in test [4] was 7.8×10^−10 μmol Cl^− (cell·d)^−1. In test [1] (fractions after gel filtration, reduced methyl viologen as electron donor), the “rate of reduction by active protein fractions” value was 350 nmol min^−1 [mg protein]^−1. Also, the “VC-reduction rate relative to activity of TCE- and cDCE-reduction” value in test [5] was “less than 1%”.

These data come from US8647824B2, “Microbial reductive dehalogenation of vinyl chloride” (The Board of Trustees of the Leland Stanford Junior …, priority 2004, dated 2014).
